Data published in patent US6521619B2, “Aryl phenylcyclopropyl sulfide derivatives and their use as cell adhesion inhibiting anti-inflammatory and immune suppressive agents” (Icos Corporation, priority 2000, dated 2003).
Read-outs that look alike come from different tables or passages of the source.

Columns and labels:
[1] = biological target: T1, ICAM-1/LFA-1 interaction (recombinant LFA-1, biotinylated recombinant ICAM-1/Ig) (Homo sapiens, UniProt P20701); assay: ICAM-1/LFA-1 Biochemical Interaction Assay (46A); format: binding
T1 construct: Recombinant LFA-1 (100 mL of 0.7 mg/ml, ICOS Corporation) in D-PBS is then added to each well
T1 sequence (P20701 26-1170): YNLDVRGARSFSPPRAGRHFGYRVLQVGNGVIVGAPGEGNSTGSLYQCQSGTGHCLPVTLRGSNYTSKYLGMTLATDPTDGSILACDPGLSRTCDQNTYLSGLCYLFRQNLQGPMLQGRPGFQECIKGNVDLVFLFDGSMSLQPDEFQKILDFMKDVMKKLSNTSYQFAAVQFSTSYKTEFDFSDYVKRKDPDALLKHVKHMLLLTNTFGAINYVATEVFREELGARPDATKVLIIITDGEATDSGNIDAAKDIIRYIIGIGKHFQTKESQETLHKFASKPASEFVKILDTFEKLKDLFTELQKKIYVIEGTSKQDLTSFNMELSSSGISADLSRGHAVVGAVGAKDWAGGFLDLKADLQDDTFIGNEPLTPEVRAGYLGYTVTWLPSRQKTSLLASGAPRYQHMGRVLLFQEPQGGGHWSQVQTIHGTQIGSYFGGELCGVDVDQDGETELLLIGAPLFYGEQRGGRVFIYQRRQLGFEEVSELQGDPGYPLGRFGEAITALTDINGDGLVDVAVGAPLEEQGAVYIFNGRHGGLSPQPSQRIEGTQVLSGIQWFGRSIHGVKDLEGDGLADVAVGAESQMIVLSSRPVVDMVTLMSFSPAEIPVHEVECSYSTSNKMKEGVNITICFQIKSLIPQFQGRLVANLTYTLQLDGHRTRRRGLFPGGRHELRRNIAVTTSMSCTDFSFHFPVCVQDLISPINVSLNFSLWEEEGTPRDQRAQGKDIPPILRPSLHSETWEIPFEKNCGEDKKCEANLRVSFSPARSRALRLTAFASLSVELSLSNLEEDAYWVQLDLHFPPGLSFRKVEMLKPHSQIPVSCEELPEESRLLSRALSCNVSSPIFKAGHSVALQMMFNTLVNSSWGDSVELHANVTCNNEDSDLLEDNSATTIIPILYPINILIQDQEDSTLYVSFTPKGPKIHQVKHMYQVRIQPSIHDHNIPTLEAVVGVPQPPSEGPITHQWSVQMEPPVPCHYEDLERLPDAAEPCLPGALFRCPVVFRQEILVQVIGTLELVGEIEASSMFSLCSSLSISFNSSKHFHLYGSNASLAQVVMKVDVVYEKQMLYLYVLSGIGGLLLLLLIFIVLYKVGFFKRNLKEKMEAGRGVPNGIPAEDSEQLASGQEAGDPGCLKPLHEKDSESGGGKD
T1 sequence (P05107 23-769 partner): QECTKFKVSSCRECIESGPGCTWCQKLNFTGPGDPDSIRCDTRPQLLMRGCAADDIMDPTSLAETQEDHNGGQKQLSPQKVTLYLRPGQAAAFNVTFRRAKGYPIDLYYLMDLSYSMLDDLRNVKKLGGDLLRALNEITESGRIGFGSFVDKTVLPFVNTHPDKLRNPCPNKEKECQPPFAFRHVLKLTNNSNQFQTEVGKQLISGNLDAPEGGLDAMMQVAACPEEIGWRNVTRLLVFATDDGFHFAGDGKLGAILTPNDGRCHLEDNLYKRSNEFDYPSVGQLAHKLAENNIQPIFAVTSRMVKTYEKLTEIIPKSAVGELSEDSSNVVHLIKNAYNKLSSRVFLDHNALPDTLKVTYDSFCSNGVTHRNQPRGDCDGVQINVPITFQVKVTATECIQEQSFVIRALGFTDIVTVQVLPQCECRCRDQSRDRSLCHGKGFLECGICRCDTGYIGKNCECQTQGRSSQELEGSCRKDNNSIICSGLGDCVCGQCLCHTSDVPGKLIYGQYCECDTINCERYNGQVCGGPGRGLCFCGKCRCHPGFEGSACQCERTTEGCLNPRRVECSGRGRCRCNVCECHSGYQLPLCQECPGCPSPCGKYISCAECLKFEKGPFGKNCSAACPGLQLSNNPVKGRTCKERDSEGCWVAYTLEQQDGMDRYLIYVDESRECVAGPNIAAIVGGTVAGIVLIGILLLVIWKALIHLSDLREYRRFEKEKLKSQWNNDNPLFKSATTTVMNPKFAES
Protocol: Compounds that antagonize the interaction between ICAM-1 and LFA-1 can be identified, and their activities quantitated, using both biochemical and cell-based adhesion assays. A primary biochemical assay, described below as assay 46A, was utilized to measure the ability of the present compounds to block the interaction between the integrin LFA-1 and its adhesion partner ICAM-1.
46A. ICAM-1/LFA-1 Biochemical Interaction Assay
In the biochemical assay, 100 mL of anti-LFA-1 antibody (ICOS Corporation) at a concentration of 5 mg/ml in Dulbecco's phosphate-buffered saline (D-PBS) is used to coat wells of a 96-well microtiter plate overnight at 4° C. The wells are then washed twice with wash buffer (D-PBS w/o Ca^++ or Mg^++, 0.05% Tween 20) and blocked by addition of 200 mL of D-PBS, 5% fish skin gelatin. Recombinant LFA-1 (100 mL of 0.7 mg/ml, ICOS Corporation) in D-PBS is then added to each well. Incubation continues for 1 hour at room temperature and the wells are washed twice with wash buffer. Serial dilutions of compounds being assayed as ICAM-1/LFA-1 antagonists, prepared as 10 mM stock solutions in dimethyl sulfoxide (DMSO), are diluted in D-PBS, 2 mM MgCl2, 1% fish skin gelatin and 50 mL of each dilution added to duplicate wells. This is followed by addition of […] of 0.8 mg/ml biotinylated recombinant ICAM-1/Ig (ICOS Corporation) to the wells and the plates are incubated at room temperature for 1 hour The wells are then washed twice with wash buffer and 100 mL of Europium-labeled Streptavidin (Wallac Oy) diluted 1:100 in Delfia assay buffer (Wallac Oy) are added to the wells. Incubation proceeds for 1 hour at room temperature. […] Incubation proceeds for 5 minutes with constant mixing.
where “background” refers to wells that are not coated with anti-LFA-1 antibody.

[2] = system: JY-8 cells (expressing LFA-1) adhering to immobilized ICAM-1; assay: ICAM-1/JY-8 Cell Adhesion Assay (46B); format: cell-based, human; conditions: Homo sapiens, JY-8 cell adhesion to ICAM-1; for inhibition at 2 µM: @ 2 μM compound (cell)
Protocol: Biologically relevant activity of the compounds in this invention was confirmed using a cell-based adhesion assay, (described below as assay 46B) which measured the ability of the present compounds to block the adherence of JY-8 cells (a human EBV-transformed B cell line expressing LFA-1 on its surface) to immobilized ICAM-1.
46B. ICAM-1 /JY-8 Cell Adhesion Assay
For measurement of inhibitory activity in the cell-based adhesion assay, 96-well microtiter plates are coated with 70 μL of recombinant ICAM-1/g (ICOS Corporation) at a concentration of 5 μg/mL in D-PBS w/o Ca^++ or Mg^++ overnight at 4° C. The wells are then washed twice with D-PBS and blocked by addition of 200 μL of D-PBS, 5% fish skin gelatin by incubation for 1 hour at room temperature. Fluorescent tagged JY-8 cells (a human EBV-transformed B cell line expressing LFA-1 on its surface; 50 μL at 2×10^6 cells/ml in RPMI 1640 (standard cell culture medium)/1% fetal bovine serum) are added to the wells. For fluorescent labeling of JY-8 cells, 5×10^6 cells washed once in RPMI 1640 are resuspended in 1 mL of RPMI 1640 containing 2 μM Calceiun AM (MolecularProbes), are incubated at 37° C for 30 minutes and washed once with RPMI-1640/1% fetal bovine serum. Dilutions of compounds to be assayed for ICAM-1/LFA-1 antagonistic activity are prepared in RPMI-1640/1% fetal bovine serum from 10 mM stock solutions in DMSO and 50 μL are added to duplicate wells. Microtiter plates are incubated for 45 minutes at room temperature and the wells are washed gently once with RPMI-1640/1% fetal bovine serum. Fluorescent intensity is measured in a fluorescent plate reader with an excitation wavelength at 485 nm and an emission wavelength at 530 nm. The percent inhibition of a candidate compound at a given concentration is calculated using the following equation: [formula]
and these concentration/inhibition data are used to generate dose response curves, from which IC50 values are derived.

[3] = @ 2 μM compound, read-out: % inhibition

(±)-(2-Isopropylphenyl)[2,3-dichloro-4-(trans-(2-(4-carboxypiperidin-1-yl)carbonyl)cycloprop-1-yl)phenyl]sulfide [Example 18]
% inhibition ([1]; @ 4 μM compound): 94% @ 4 μM

CC(C)c1ccccc1Sc1ccc(C2CC2C(=O)NCCCN2CCCC2=O)c(Cl)c1Cl (racemic) [Example 22, (±)-(2-Isopropylphenyl)[2,3-dichloro-4-(trans-(2-((3-(1-pyrrolidin-2-onyl)-prop-1-ylamino)carbonyl)cycloprop-1-yl)phenyl]sulfide]
inhibition at 2 µM [2]: 92%

(±)-(2-Isopropylphenyl)[2,3-dichloro-4-(trans-(2-(4-acetylpiperazin-1-yl)carbonyl)cycloprop-1-yl)phenyl]sulfide [Example 21]
% inhibition ([1]; @ 4 μM compound): 96% @ 4 μM

COc1ccccc1Sc1ccc(C2CC2C(=O)NCC(=O)O)c(Cl)c1Cl (mixture of isomers) [Example 12]
inhibition at 4 µM ([1]; @ 4 μM compound): 93%

O=C(NCCCN1CCCC1=O)[C@@H]1C[C@H]1c1ccc(Sc2ccccc2Br)c(C(F)(F)F)c1 (relative stereo) [Example 4]
% inhibition ([1]; @ 2 μM compound, 2 µM): 81% @ 2 μM

CC(C)c1ccccc1Sc1ccc(C2CC2C(=O)NCC(=O)O)c(Cl)c1Cl (racemic) [Example 2, (±)-(2-Isopropylphenyl)[2,3-dichloro-4-(trans-(carboxymethylamino)carbonyl)cycloprop-1-yl)phenyl]sulfide]
inhibition at 2 µM [1, 3]: 95%

O=C(O)C1CC1c1ccc(Sc2ccccc2Br)c(Cl)c1Cl (racemic) [Example 15, (±)-(2-Bromophenyl)[2,3-dichloro-4-(trans-(2-carboxycycloprop-1-yl)phenyl]sulfide]
inhibition at 4 µM ([1]; @ 4 μM compound): 88%

COc1ccccc1Sc1ccc(C2CC2C(=O)NCCC(=O)O)c(Cl)c1Cl (mixture of isomers) [Example 13]
inhibition at 4 µM ([1]; @ 4 μM compound): 95%

CC(C)c1ccccc1Sc1ccc(C2CC2C(=O)NCCCC(=O)O)c(Cl)c1Cl (racemic) [Example 17, (±)-(2-Isopropylphenyl)[2,3-dichloro-4-(trans-(2-(3-carboxypropylamino)carbonyl)cycloprop-1-yl)phenyl]sulfide]
inhibition at 2 µM [2]: 86%

CC(C)c1ccccc1Sc1ccc(C2CC2C(=O)N2CCOCC2)c(Cl)c1Cl (racemic) [Example 20, (±)-(2-Isopropylphenyl)[2,3-dichloro-4-(trans-(2-(morpholin-1-yl)carbonyl)cycloprop-1-yl)phenyl]sulfide]
inhibition at 2 µM [1, 3]: 96%

(±)-(2-Bromophenyl)[2-trifluoromethyl-4-(trans-(2-((3-(1-pyrrolidin-2-onyl)-prop-1-ylamino)carbonyl)cycloprop-1-yl)phenyl]sulfide [Example 1]
% inhibition ([1]; @ 2 μM compound): 96% @ 2 μM

CC(C)c1ccccc1Sc1ccc(C2CC2C(=O)N2CCC2)c(Cl)c1Cl (racemic) [Example 25, (±)-(2-Isopropylphenyl)[2,3-dichloro-4-(trans-(2-(azetidin-1-yl)carbonyl)cycloprop-1-yl)phenyl]sulfide]
inhibition at 2 µM [1, 3]: 95%

O=C(NCCCN1CCCC1=O)C1CC1c1ccc(Sc2ccccc2Br)c(C(F)(F)F)c1 (racemic) [Example 1, (±)-(2-Bromophenyl)[2-trifluoromethyl-4-(trans-(2-((3-(1-pyrrolidin-2-onyl)-prop-1-ylamino)carbonyl)cycloprop-1-yl)phenyl]sulfide]
inhibition at 4 µM ([1]; @ 4 μM compound): 92%

O=C(NCCCN1CCCC1=O)C1CC1c1ccc(Sc2cccc(N3CCOCC3)c2)c(C(F)(F)F)c1 (racemic) [Example 11, (±)-(3-Morpholin-1-ylphenyl)[2-trifluoromethyl-4-(trans-(2-((3-(1-pyrrolidin-2-onyl)-prop-1-ylamino)carbonyl)cycloprop-1-yl)phenyl]sulfide]
inhibition at 4 µM ([1]; @ 4 μM compound): 44%

CC(=O)N1CCN(C(=O)C2CC2c2ccc(Sc3ccccc3C(C)C)c(Cl)c2Cl)CC1 (racemic) [Example 21, (±)-(2-Isopropylphenyl)[2,3-dichloro-4-(trans-(2-(4-acetylpiperazin-1-yl)carbonyl)cycloprop-1-yl)phenyl]sulfide]
inhibition at 2 µM [2]: 88%
inhibition at 2 µM [1, 3]: 94%

(±)-(2-Isopropylphenyl)[2,3-dichloro-4-(trans-2-(cyclobutylaminocarbonyl)cycloprop-1-yl)phenyl]sulfide [Example 24]
% inhibition ([1]; @ 4 μM compound): 96% @ 4 μM

O=C(NCCCN1CCCC1=O)[C@@H]1C[C@H]1c1ccc(Sc2ccccc2Br)c(C(F)(F)F)c1 (relative stereo) [Example 5]
% inhibition ([1]; @ 2 μM compound, 2 µM): 94% @ 2 μM

O=C(O)C1CCCN(c2ccccc2Sc2ccc(C3CC3C(=O)NCCCN3CCCC3=O)cc2C(F)(F)F)C1 (mixture of isomers) [Example 6, (±)-(2-(2-carboxyethyl)phenyl)[2-trifluoromethyl-4-(trans-(2-((3-(1-pyrrolidin-2-onyl)-prop-1-ylamino)carbonyl)cycloprop-1-yl)phenyl]sulfide]
inhibition at 2 µM ([1]; @ 2 μM compound): 93%

O=C(O)C1CC1c1ccc(Sc2ccccc2N2CCOCC2)c(Cl)c1Cl (racemic) [Example 12, (±)-(2-Morpholin-1-ylphenyl)[2,3-dichloro-4-(trans-(2-carboxycycloprop-1-yl)phenyl]sulfide]
inhibition at 4 µM ([1]; @ 4 μM compound): 91%

CC(C)c1ccccc1Sc1ccc([C@@H]2C[C@H]2C(=O)NC2CCC2)c(Cl)c1Cl (racemic) [Example 24, (±)-(2-Isopropylphenyl)[2,3-dichloro-4-(trans-2-(cyclobutylaminocarbonyl)cycloprop-1-yl)phenyl]sulfide]
inhibition at 2 µM [1, 3]: 94%

(±)-(2-Isopropylphenyl)[2,3-dichloro-4-(trans-(2-(morpholin-1-yl)carbonyl)cycloprop-1-yl)phenyl]sulfide [Example 20]
% inhibition ([1]; @ 4 μM compound): 96% @ 4 μM

CC(C)c1ccccc1Sc1ccc(C2CC2C(=O)N2CCCC(C(=O)O)C2)c(Cl)c1Cl (racemic) [Example 3, (±)-(2-Isopropylphenyl)[2,3-dichloro-4-(trans-(2-(3-carboxypiperidine))carbonyl)cycloprop-1-yl)phenyl]sulfide]
inhibition at 2 µM [2]: 90%

O=C(NCCCN1CCCC1=O)C1CC1c1ccc(Sc2ccccc2N2CCOCC2)c(C(F)(F)F)c1 (racemic) [Example 7, (±)-(2-Morpholin-1-ylphenyl)[2-trifluoromethyl-4-(trans-(2-((3-(1-pyrrolidin-2-onyl)-prop-1-ylamino)carbonyl)cycloprop-1-yl)phenyl]sulfide]
inhibition at 1 µM ([2]; @ 1 μM compound (cell)): 84%

O=C(NCCCN1CCCC1=O)C1CC1c1ccc(Sc2ccccc2N2CCCC2)c(C(F)(F)F)c1 (racemic) [Example 10, (±)-(2-Pyrrolidin-1-ylphenyl)[2-trifluoromethyl-4-(trans-(2-((3-(1-pyrrolidin-2-onyl)-prop-1-ylamino)carbonyl)cycloprop-1-yl)phenyl]sulfide]
inhibition at 4 µM ([2]; @ 4 μM compound): 72%

CC(C)c1ccccc1Sc1ccc([C@@H]2C[C@H]2C(=O)N2CCCCC2C(=O)O)c(Cl)c1Cl (mixture of isomers) [Example 19, (±)-(2-Isopropylphenyl)[2,3-dichloro-4-(trans-(2-(2-carboxypiperidin-1-yl)carbonyl)cycloprop-1-yl)phenyl]sulfide]
% inhibition ([1]; @ 4 μM compound): 96% @ 4 μM
